According to patent publication US20230085307A1, “PYRIDAZINONE COMPOUND AND HERBICIDE” (NISSAN CHEMICAL CORPORATION, priority 2019, published 2023):

The compounds below were run on southern crabgrass (assay: Test Example 4: herbicidal effect by soil treatment (Table 19, symbol F)). Details: amount of applied herbicide 320 g/ha.
Format: in vivo, southern crabgrass (Digitaria ciliaris)
Method in brief: (§1)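 Soil-surface application: an emulsion agent diluted with water to the predetermined dose is sprayed uniformly over seeds lying under roughly 1.5 cm of sterilized diluvial soil. Boxes stay in a greenhouse at 25° C. to 30° C. Three weeks later, each species is graded on previously defined criteria.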

| SMILES | herbicidal effect rating, F: southern crabgrass |
| --- | --- |
| CCOc1cc(F)ccc1-c1sc2ccccc2c1-c1c(O)c(C)nn(C)c1=O [1-061] | 5 (Herbicidal rate of 90% or more (almost completely withered)) |
| COC(=O)Oc1c(C)nn(C)c(=O)c1-c1c(-c2ccc3c(c2)OCCO3)sc2ccccc12 [1-091] | 3 (Herbicidal rate of 40% or more and less than 70%) |

The compounds below were run on green foxtail (assay: Test Example 5: herbicidal effect by foliage application, plastic box (Table 20, symbol G)). Details: foliage application, 320 g/ha, three weeks after application.
Format: in vivo, green foxtail (Setaria viridis)
Method in brief: (§2)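 Sow seeds spot-wise in sterilized diluvial soil; cover with ~1.5 cm soil. Grow 14 days in greenhouse, 25° C. to 30° C. Spray foliage with emulsion diluted to predetermined amount. Rate effect after 3 weeks.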

| SMILES | herbicidal effect grade, G: green foxtail |
| --- | --- |
| CCOc1cc(F)ccc1-c1sc2ccccc2c1-c1c(O)c(C)nn(C)c1=O [1-061] | 5 (Herbicidal rate of 90% or more (almost completely withered)) |

Same assay, conditions: foliage application, AAH 320 g/ha, three weeks after application

| SMILES | G: green foxtail, herbicidal effect |
| --- | --- |
| COC(=O)Oc1c(C)nn(C)c(=O)c1-c1c(-c2ccc3c(c2)OCCO3)sc2ccccc12 [1-091] | 5 (Herbicidal rate of 90% or more (almost completely withered)) |

What follows are compounds tested on redroot pigweed (assay: Test Example 4: herbicidal effect by soil treatment (Table 19, symbol N)). Details: amount of applied herbicide 320 g/ha.
Format: in vivo, redroot pigweed (Amaranthus retroflexus)
Method in brief: as §1

| SMILES | herbicidal effect rating, N: redroot pigweed |
| --- | --- |
| CCOc1cc(F)ccc1-c1sc2ccccc2c1-c1c(O)c(C)nn(C)c1=O [1-061] | 4 (Herbicidal rate of 70% or more and less than 90%) |
| COC(=O)Oc1c(C)nn(C)c(=O)c1-c1c(-c2ccc3c(c2)OCCO3)sc2ccccc12 [1-091] | 3 (Herbicidal rate of 40% or more and less than 70%) |

What follows are compounds tested on false cleavers (assay: Test Example 5: herbicidal effect by foliage application, plastic box (Table 20, symbol Q)). Details: foliage application, 320 g/ha, three weeks after application.
Format: in vivo, false cleavers (Galium spurium)
Method in brief: as §2

| SMILES | herbicidal effect grade, Q: false cleavers |
| --- | --- |
| CCOc1cc(F)ccc1-c1sc2ccccc2c1-c1c(O)c(C)nn(C)c1=O [1-061] | 5 (Herbicidal rate of 90% or more (almost completely withered)) |

Same assay, conditions: foliage application, AAH 320 g/ha, three weeks after application

| SMILES | Q: false cleavers, herbicidal effect |
| --- | --- |
| COC(=O)Oc1c(C)nn(C)c(=O)c1-c1c(-c2ccc3c(c2)OCCO3)sc2ccccc12 [1-091] | 4 (Herbicidal rate of 70% or more and less than 90%) |

What follows are compounds tested on wild oat (assay: Test Example 4: herbicidal effect by soil treatment (Table 19, symbol I)). Details: amount of applied herbicide 320 g/ha.
Format: in vivo, wild oat (Avena fatua)
Method in brief: as §1

| SMILES | herbicidal effect rating, I: wild oat |
| --- | --- |
| CCOc1cc(F)ccc1-c1sc2ccccc2c1-c1c(O)c(C)nn(C)c1=O [1-061] | 3 (Herbicidal rate of 40% or more and less than 70%) |
| COC(=O)Oc1c(C)nn(C)c(=O)c1-c1c(-c2ccc3c(c2)OCCO3)sc2ccccc12 [1-091] | 0 (Herbicidal rate of 5% or less (almost no effect)) |

What follows are compounds tested on lambsquarters (assay: Test Example 5: herbicidal effect by foliage application, plastic box (Table 20, symbol O)). Details: foliage application, 320 g/ha, three weeks after application.
Format: in vivo, lambsquarters (Chenopodium album)
Method in brief: as §2

| SMILES | herbicidal effect grade, O: lambsquarters |
| --- | --- |
| CCOc1cc(F)ccc1-c1sc2ccccc2c1-c1c(O)c(C)nn(C)c1=O [1-061] | 4 (Herbicidal rate of 70% or more and less than 90%) |

Same assay, conditions: foliage application, AAH 320 g/ha, three weeks after application

| SMILES | O: lambsquarters, herbicidal effect |
| --- | --- |
| COC(=O)Oc1c(C)nn(C)c(=O)c1-c1c(-c2ccc3c(c2)OCCO3)sc2ccccc12 [1-091] | 4 (Herbicidal rate of 70% or more and less than 90%) |

The compounds below were run on blackgrass (assay: Test Example 4: herbicidal effect by soil treatment (Table 19, symbol J)). Details: amount of applied herbicide 320 g/ha.
Format: in vivo, blackgrass (Alopecurus myosuroides)
Method in brief: as §1

| SMILES | herbicidal effect rating, J: blackgrass |
| --- | --- |
| CCOc1cc(F)ccc1-c1sc2ccccc2c1-c1c(O)c(C)nn(C)c1=O [1-061] | 5 (Herbicidal rate of 90% or more (almost completely withered)) |
| COC(=O)Oc1c(C)nn(C)c(=O)c1-c1c(-c2ccc3c(c2)OCCO3)sc2ccccc12 [1-091] | 0 (Herbicidal rate of 5% or less (almost no effect)) |

What follows are compounds tested on green foxtail (assay: Test Example 4: herbicidal effect by soil treatment (Table 19, symbol G)). Details: amount of applied herbicide 320 g/ha.
Format: in vivo, green foxtail (Setaria viridis)
Method in brief: as §1

| SMILES | herbicidal effect rating, G: green foxtail |
| --- | --- |
| CCOc1cc(F)ccc1-c1sc2ccccc2c1-c1c(O)c(C)nn(C)c1=O [1-061] | 5 (Herbicidal rate of 90% or more (almost completely withered)) |
| COC(=O)Oc1c(C)nn(C)c(=O)c1-c1c(-c2ccc3c(c2)OCCO3)sc2ccccc12 [1-091] | 5 (Herbicidal rate of 90% or more (almost completely withered)) |

These compounds were tested on late watergrass (assay: Test Example 2: herbicidal activity, application during weed generation under submerged conditions (Table 17, symbol A)). Details: AAH 320 g/ha; application during weed generation, submerged conditions.
Format: in vivo, late watergrass (Echinochloa oryzicola)
Method in brief: (§3)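 3-wk visual-criteria score after one water-surface dose. Emulsion formulation, water-diluted to set rate; applied at 1–2 leaf stage; alluvial soil, 4 cm standing water; seeds co-sown; greenhouse 25–30° C.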

| SMILES | herbicidal effect rating, A: late watergrass |
| --- | --- |
| CCOc1cc(F)ccc1-c1sc2ccccc2c1-c1c(O)c(C)nn(C)c1=O [1-061] | 0 (Herbicidal rate of 5% or less (almost no effect)) |
| COC(=O)Oc1c(C)nn(C)c(=O)c1-c1c(-c2ccc3c(c2)OCCO3)sc2ccccc12 [1-091] | 3 (Herbicidal rate of 40% or more and less than 70%) |

The compounds below were run on false cleavers (assay: Test Example 4: herbicidal effect by soil treatment (Table 19, symbol Q)). Details: amount of applied herbicide 320 g/ha.
Format: in vivo, false cleavers (Galium spurium)
Method in brief: as §1

| SMILES | herbicidal effect rating, Q: false cleavers |
| --- | --- |
| CCOc1cc(F)ccc1-c1sc2ccccc2c1-c1c(O)c(C)nn(C)c1=O [1-061] | 4 (Herbicidal rate of 70% or more and less than 90%) |
| COC(=O)Oc1c(C)nn(C)c(=O)c1-c1c(-c2ccc3c(c2)OCCO3)sc2ccccc12 [1-091] | 3 (Herbicidal rate of 40% or more and less than 70%) |

These compounds were tested on Italian ryegrass (assay: Test Example 5: herbicidal effect by foliage application, plastic box (Table 20, symbol K)). Details: foliage application, 320 g/ha, three weeks after application.
Format: in vivo, Italian ryegrass (Lolium multiflorum)
Method in brief: as §2

| SMILES | herbicidal effect grade, K: Italian ryegrass |
| --- | --- |
| CCOc1cc(F)ccc1-c1sc2ccccc2c1-c1c(O)c(C)nn(C)c1=O [1-061] | 4 (Herbicidal rate of 70% or more and less than 90%) |

Same assay, conditions: foliage application, AAH 320 g/ha, three weeks after application

| SMILES | K: Italian ryegrass, herbicidal effect |
| --- | --- |
| COC(=O)Oc1c(C)nn(C)c(=O)c1-c1c(-c2ccc3c(c2)OCCO3)sc2ccccc12 [1-091] | 4 (Herbicidal rate of 70% or more and less than 90%) |

Each compound was assayed on Japanese bulrush (assay: Test Example 2: herbicidal activity, application during weed generation under submerged conditions (Table 17, symbol B)). Details: AAH 320 g/ha; application during weed generation, submerged conditions.
Format: in vivo, Japanese bulrush (Schoenoplectus juncoides)
Method in brief: as §3

| SMILES | herbicidal effect rating, B: Japanese bulrush |
| --- | --- |
| CCOc1cc(F)ccc1-c1sc2ccccc2c1-c1c(O)c(C)nn(C)c1=O [1-061] | 3 (Herbicidal rate of 40% or more and less than 70%) |
| COC(=O)Oc1c(C)nn(C)c(=O)c1-c1c(-c2ccc3c(c2)OCCO3)sc2ccccc12 [1-091] | 4 (Herbicidal rate of 70% or more and less than 90%) |

What follows are compounds tested on velvetleaf (assay: Test Example 4: herbicidal effect by soil treatment (Table 19, symbol M)). Details: amount of applied herbicide 320 g/ha.
Format: in vivo, velvetleaf (Abutilon theophrasti)
Method in brief: as §1

| SMILES | herbicidal effect rating, M: velvetleaf |
| --- | --- |
| CCOc1cc(F)ccc1-c1sc2ccccc2c1-c1c(O)c(C)nn(C)c1=O [1-061] | 0 (Herbicidal rate of 5% or less (almost no effect)) |
| COC(=O)Oc1c(C)nn(C)c(=O)c1-c1c(-c2ccc3c(c2)OCCO3)sc2ccccc12 [1-091] | 5 (Herbicidal rate of 90% or more (almost completely withered)) |

The compounds below were run on oval-leafed pondweed (assay: Test Example 2: herbicidal activity, application during weed generation under submerged conditions (Table 17, symbol C)). Details: AAH 320 g/ha; application during weed generation, submerged conditions.
Format: in vivo, oval-leafed pondweed (Monochoria vaginalis)
Method in brief: as §3

| SMILES | herbicidal effect rating, C: oval-leafed pondweed |
| --- | --- |
| CCOc1cc(F)ccc1-c1sc2ccccc2c1-c1c(O)c(C)nn(C)c1=O [1-061] | 4 (Herbicidal rate of 70% or more and less than 90%) |
| COC(=O)Oc1c(C)nn(C)c(=O)c1-c1c(-c2ccc3c(c2)OCCO3)sc2ccccc12 [1-091] | 4 (Herbicidal rate of 70% or more and less than 90%) |

Each compound was assayed on barnyard grass (assay: Test Example 4: herbicidal effect by soil treatment (Table 19, symbol H)). Details: amount of applied herbicide 320 g/ha.
Format: in vivo, barnyard grass (Echinochloa crus-galli)
Method in brief: as §1

| SMILES | herbicidal effect rating, H: barnyard grass |
| --- | --- |
| CCOc1cc(F)ccc1-c1sc2ccccc2c1-c1c(O)c(C)nn(C)c1=O [1-061] | 4 (Herbicidal rate of 70% or more and less than 90%) |
| COC(=O)Oc1c(C)nn(C)c(=O)c1-c1c(-c2ccc3c(c2)OCCO3)sc2ccccc12 [1-091] | 5 (Herbicidal rate of 90% or more (almost completely withered)) |

What follows are compounds tested on persian speedwell (assay: Test Example 5: herbicidal effect by foliage application, plastic box (Table 20, symbol R)). Details: foliage application, 320 g/ha, three weeks after application.
Format: in vivo, Persian speedwell (Veronica persica)
Method in brief: as §2

| SMILES | herbicidal effect grade, R: persian speedwell |
| --- | --- |
| CCOc1cc(F)ccc1-c1sc2ccccc2c1-c1c(O)c(C)nn(C)c1=O [1-061] | 5 (Herbicidal rate of 90% or more (almost completely withered)) |

Same assay, conditions: foliage application, AAH 320 g/ha, three weeks after application

| SMILES | R: persian speedwell, herbicidal effect |
| --- | --- |
| COC(=O)Oc1c(C)nn(C)c(=O)c1-c1c(-c2ccc3c(c2)OCCO3)sc2ccccc12 [1-091] | 5 (Herbicidal rate of 90% or more (almost completely withered)) |
